How the values were obtained:
[1] = molecular target: Acetylcholinesterase (Homo sapiens, UniProt P22303)
Description: Inhibition of human recombinant AChE using acetylthiocholine as substrate

[2] = molecular target: Cholinesterase (Homo sapiens, UniProt P06276)
Description: Inhibition of human recombinant BChE using acetylthiocholine as substrate

[3] = molecular target: Beta-secretase 1 (Homo sapiens, UniProt P56817)
Sequence of Beta-secretase 1 (P56817 whole entry): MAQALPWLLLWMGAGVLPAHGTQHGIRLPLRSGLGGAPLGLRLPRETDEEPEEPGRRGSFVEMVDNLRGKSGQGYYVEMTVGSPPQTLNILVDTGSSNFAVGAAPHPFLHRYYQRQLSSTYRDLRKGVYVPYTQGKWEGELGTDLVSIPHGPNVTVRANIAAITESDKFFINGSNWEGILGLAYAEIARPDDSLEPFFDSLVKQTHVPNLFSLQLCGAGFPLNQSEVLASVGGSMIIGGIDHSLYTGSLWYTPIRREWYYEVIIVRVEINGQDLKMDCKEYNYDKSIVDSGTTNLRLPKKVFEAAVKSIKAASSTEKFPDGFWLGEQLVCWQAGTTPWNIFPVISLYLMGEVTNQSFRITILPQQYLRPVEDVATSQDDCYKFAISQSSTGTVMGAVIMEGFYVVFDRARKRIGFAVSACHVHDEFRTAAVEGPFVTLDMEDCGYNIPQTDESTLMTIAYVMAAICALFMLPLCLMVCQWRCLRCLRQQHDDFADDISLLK

Sequence of Acetylcholinesterase (P22303 whole entry): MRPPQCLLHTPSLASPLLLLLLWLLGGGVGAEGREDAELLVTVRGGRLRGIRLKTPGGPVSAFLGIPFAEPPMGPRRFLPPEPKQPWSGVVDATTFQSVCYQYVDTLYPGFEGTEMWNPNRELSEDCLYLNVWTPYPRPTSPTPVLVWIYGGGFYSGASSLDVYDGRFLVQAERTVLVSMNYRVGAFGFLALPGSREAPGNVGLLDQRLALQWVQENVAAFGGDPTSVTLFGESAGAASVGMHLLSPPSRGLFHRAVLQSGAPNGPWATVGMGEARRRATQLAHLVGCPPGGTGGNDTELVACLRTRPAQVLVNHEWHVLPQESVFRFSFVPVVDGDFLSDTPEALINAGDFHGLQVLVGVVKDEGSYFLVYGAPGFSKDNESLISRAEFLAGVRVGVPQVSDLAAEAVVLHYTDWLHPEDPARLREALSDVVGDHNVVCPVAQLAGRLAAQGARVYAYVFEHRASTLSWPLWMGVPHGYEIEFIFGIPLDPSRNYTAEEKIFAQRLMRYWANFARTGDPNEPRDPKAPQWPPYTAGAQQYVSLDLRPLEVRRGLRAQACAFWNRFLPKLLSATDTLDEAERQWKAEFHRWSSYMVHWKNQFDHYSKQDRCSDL
Sequence of Cholinesterase (P06276 whole entry): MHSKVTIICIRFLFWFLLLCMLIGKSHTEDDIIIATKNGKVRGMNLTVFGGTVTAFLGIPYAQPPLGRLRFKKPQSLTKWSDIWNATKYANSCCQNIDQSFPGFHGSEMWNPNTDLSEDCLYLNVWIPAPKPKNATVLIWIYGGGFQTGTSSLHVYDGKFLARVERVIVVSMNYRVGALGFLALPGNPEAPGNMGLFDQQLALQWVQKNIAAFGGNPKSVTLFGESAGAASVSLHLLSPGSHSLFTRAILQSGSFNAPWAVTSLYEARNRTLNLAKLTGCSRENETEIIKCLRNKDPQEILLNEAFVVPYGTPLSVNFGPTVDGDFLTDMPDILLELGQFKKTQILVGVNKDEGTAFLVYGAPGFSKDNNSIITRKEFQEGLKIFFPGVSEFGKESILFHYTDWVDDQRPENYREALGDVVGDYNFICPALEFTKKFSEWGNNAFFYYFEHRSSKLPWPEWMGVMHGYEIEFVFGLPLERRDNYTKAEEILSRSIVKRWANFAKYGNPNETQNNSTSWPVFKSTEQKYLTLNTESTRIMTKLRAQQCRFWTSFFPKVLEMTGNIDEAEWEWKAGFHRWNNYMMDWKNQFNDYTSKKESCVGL

## CN(C)c1cc[n+](CCCCOc2ccc(C(=O)NCCc3c[nH]c4ccccc34)cc2)cc1
[1]
  Ki: 198 nM
[2]
  Ki: 2360 nM

## O=C(NCCc1c[nH]c2ccccc12)c1ccc(OCCCCn2ccc3ccccc32)cc1
[1]
  Ki: > 10000 nM

## CC(=O)c1ccccc1NC(=O)c1ccc(OCCCC[n+]2ccc3ccccc3c2)cc1
[1]
  Ki: 45.8 nM
[2]
  Ki: 56 nM

## CC(=O)c1ccccc1NC(=O)c1ccc(OCCCCCC[n+]2ccc3ccccc3c2)cc1
[1]
  Ki: 9.4 nM
[2]
  Ki: 99 nM
[3]
  IC50: > 100000 nM

## O=C(NCCc1c[nH]c2ccccc12)c1ccc(OCCCCn2c3ccccc3c3ccccc32)cc1
[1]
  Ki: 1440 nM

## O=C(NCCc1c[nH]c2ccccc12)c1ccc(OCCCCOc2cccc3[nH]c4ccccc4c23)cc1
[1]
  Ki: > 10000 nM

## O=C(NCCc1c[nH]c2ccccc12)c1ccc(OCCCCOc2cccc(C(=O)c3ccccc3)c2)cc1
[1]
  Ki: > 10000 nM

## O=C(NCCc1c[nH]c2ccccc12)c1ccc(OCCCC[n+]2cccc3ccccc32)cc1
[1]
  Ki: 124 nM
[2]
  Ki: 97 nM

## CC(=O)c1ccccc1NC(=O)c1ccc(OCCCCCC[n+]2ccccc2)cc1
[1]
  Ki: 47 nM
[2]
  Ki: 66 nM

## O=C(NCCc1c[nH]c2ccccc12)c1ccc(OCCCCOc2ccc3c(c2)C(=O)c2ccccc2-3)cc1
[1]
  Ki: > 10000 nM

## CC(=O)c1ccccc1NC(=O)c1ccc(OCCCCC[n+]2ccccc2)cc1
[1]
  Ki: 81 nM
[2]
  Ki: 93 nM
[3]
  IC50: 310 nM

## O=C(NCCc1c[nH]c2ccccc12)c1ccc(OCCCCOc2ccc(C(=O)c3ccccc3)cc2)cc1
[1]
  Ki: > 10000 nM

## CC(=O)c1ccccc1NC(=O)c1ccc(OCCCC[n+]2cccc3ccccc32)cc1
[1]
  Ki: 53 nM
[2]
  Ki: 166 nM

## CC(=O)c1ccccc1NC(=O)c1ccc(OCCCCC[n+]2ccc3ccccc3c2)cc1
[1]
  Ki: 44.7 nM
[2]
  Ki: 82 nM
[3]
  IC50: > 100000 nM

## CC(=O)c1ccccc1NC(=O)c1ccc(OCCCCC[n+]2cccc3ccccc32)cc1
[1]
  Ki: 6.47 nM
[2]
  Ki: 55 nM
[3]
  IC50: 85000 nM
